Laboratory results reported in ChEMBL document CHEMBL6109064, “Functional and structural polypharmacology of indazole-based privileged ligands to tackle the undruggability of membrane transporters” (Eur J Med Chem, 2025).

What was measured:
Assay type in all cases: cell-based
[1] = molecular target: Multidrug resistance-associated protein 1 (Homo sapiens, UniProt P33527); assay: Inhibition of ABCC1 in human NCI-H69AR cells assessed as increase in rhodamine123 fluorescence intensity using rhodamine123 as tracer preincubated for 30 mins followed by rhodamine 123 addition and measured for 180 mins by flow cytometry
[2] = molecular target: T1, Solute carrier organic anion transporter family member 1A2 (Homo sapiens, UniProt P46721); assay: Inhibition of OATP1A2 (unknown origin) transfected in human A-431 cells assessed as inhibition of SR101 uptake preincubated for 5 mins followed by SR101 addition and measured after 10 mins by fluorescence based analysis
T1 sequence (P46721 whole entry): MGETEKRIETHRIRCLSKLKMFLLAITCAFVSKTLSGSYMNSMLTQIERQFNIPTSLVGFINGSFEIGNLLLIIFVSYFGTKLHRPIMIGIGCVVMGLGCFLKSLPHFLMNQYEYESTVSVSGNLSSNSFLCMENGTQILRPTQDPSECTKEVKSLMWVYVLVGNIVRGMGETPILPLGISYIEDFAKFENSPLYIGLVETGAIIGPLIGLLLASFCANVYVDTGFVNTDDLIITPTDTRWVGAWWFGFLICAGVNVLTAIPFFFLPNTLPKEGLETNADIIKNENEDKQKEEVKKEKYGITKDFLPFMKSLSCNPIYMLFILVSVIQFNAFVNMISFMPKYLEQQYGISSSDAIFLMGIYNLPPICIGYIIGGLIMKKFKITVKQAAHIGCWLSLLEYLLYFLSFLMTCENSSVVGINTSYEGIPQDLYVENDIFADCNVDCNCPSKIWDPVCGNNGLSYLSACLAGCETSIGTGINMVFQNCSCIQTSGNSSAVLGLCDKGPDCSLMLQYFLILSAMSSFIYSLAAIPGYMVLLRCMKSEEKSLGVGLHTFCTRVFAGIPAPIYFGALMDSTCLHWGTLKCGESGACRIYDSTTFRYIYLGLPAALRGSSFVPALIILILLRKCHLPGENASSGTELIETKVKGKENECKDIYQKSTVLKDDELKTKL

[3] = molecular target: T2, Solute carrier organic anion transporter family member 1B3 (Homo sapiens, UniProt Q9NPD5); assay: Inhibition of OATP1B3 (unknown origin) transfected in human A-431 cells assessed as inhibition of DHPDS uptake preincubated for 5 mins followed by DHPDS addition and measured after 10 mins by fluorescence based analysis
T2 sequence (Q9NPD5 whole entry): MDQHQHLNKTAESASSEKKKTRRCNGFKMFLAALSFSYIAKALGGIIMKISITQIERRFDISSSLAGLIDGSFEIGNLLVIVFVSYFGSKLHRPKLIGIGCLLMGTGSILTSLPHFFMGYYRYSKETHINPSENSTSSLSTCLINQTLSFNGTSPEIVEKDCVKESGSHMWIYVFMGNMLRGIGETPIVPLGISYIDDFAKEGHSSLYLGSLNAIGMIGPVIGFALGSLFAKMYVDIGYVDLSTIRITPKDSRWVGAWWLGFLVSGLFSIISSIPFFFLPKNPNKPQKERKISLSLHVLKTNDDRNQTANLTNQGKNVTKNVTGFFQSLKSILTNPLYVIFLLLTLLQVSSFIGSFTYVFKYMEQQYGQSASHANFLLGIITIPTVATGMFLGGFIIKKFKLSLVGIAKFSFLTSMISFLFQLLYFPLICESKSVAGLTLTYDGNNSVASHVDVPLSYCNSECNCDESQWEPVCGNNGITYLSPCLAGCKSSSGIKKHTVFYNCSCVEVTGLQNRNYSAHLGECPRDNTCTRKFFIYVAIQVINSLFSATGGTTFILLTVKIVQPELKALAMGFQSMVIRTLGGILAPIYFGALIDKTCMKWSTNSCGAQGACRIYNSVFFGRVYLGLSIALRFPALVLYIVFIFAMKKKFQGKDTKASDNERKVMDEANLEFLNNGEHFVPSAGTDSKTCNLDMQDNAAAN

[4] = molecular target: T3, Solute carrier family 22 member 2 (Homo sapiens, UniProt O15244); assay: Inhibition of OCT2 (unknown origin) expressed in HEK293 cells assessed as inhibition of ASP+ uptake incubated for 5 mins by fluorescence based analysis
T3 sequence (O15244 whole entry): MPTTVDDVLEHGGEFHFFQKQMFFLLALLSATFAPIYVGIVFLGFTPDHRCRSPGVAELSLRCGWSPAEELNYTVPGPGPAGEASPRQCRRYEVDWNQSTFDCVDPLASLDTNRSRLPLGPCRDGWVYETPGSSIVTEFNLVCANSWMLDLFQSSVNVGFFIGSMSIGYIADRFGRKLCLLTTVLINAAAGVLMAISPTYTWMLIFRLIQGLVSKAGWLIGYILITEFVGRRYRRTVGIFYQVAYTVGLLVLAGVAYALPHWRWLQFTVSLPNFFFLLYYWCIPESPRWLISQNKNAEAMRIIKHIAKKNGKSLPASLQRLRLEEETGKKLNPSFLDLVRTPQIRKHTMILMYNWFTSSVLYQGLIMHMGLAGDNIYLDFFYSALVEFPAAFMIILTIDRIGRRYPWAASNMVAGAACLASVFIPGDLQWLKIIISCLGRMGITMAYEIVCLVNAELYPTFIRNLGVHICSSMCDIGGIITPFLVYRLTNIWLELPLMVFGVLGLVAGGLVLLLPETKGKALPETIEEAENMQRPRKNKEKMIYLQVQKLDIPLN

[5] = molecular target: T4, Solute carrier family 22 member 3 (Homo sapiens, UniProt O75751); assay: Inhibition of OCT3 (unknown origin) expressed in HEK293 cells assessed as inhibition of ASP+ uptake incubated for 5 mins by fluorescence based analysis
T4 sequence (O75751 whole entry): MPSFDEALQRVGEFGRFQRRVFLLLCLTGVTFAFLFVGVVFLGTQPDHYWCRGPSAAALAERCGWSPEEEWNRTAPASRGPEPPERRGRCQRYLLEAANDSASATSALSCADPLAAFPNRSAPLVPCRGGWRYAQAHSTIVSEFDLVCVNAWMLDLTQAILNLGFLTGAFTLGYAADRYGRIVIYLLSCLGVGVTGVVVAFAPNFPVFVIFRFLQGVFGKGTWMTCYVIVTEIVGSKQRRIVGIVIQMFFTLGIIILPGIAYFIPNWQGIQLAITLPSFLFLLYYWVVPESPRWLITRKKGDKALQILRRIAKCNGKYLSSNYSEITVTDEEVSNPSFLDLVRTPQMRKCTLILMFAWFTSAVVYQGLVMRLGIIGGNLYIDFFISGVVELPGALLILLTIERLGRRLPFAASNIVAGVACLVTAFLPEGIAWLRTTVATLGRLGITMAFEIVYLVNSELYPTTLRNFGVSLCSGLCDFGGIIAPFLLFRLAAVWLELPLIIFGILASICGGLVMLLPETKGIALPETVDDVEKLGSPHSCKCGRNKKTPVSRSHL

Chain of Multidrug resistance-associated protein 1 (P33527 whole entry): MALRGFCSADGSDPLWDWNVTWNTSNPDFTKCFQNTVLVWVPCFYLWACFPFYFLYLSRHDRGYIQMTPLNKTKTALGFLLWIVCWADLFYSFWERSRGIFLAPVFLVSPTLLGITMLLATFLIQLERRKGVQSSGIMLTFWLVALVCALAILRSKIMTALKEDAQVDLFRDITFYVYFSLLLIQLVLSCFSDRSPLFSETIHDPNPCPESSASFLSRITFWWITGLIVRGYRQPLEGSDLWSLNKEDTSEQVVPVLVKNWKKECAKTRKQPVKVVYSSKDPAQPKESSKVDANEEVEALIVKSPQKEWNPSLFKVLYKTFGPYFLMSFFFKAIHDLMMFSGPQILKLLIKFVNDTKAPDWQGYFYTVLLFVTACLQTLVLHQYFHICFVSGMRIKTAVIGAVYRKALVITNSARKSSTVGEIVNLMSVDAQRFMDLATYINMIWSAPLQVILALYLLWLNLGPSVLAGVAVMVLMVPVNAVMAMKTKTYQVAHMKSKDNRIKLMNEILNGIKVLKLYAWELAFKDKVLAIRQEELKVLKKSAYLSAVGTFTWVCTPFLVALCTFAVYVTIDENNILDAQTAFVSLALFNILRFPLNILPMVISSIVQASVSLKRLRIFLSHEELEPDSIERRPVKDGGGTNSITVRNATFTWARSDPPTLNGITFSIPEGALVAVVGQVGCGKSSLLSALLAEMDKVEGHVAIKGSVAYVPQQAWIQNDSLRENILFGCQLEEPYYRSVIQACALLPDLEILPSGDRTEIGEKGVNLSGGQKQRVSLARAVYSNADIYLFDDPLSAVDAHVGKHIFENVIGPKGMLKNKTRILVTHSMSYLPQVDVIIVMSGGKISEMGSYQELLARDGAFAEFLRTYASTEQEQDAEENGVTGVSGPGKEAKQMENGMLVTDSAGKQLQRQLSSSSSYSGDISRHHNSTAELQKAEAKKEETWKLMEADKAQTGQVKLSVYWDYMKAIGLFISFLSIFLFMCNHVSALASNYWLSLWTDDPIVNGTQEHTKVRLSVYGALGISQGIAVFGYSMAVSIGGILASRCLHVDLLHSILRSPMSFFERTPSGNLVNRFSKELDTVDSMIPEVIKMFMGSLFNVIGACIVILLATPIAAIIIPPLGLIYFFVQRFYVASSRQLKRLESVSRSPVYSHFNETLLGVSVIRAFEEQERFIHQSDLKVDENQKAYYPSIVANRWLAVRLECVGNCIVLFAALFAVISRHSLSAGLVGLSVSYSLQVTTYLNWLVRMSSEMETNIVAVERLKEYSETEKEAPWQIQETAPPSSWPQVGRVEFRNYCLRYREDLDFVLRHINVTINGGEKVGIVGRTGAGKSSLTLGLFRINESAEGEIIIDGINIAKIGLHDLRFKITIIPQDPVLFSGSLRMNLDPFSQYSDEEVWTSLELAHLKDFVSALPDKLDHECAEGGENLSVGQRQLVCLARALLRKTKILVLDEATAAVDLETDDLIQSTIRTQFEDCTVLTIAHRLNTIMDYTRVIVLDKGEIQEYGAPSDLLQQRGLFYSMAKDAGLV

IC50 ([1]; read-out: IC50) [nM] | IC50 [2] [nM] | IC50 [3] [nM] | IC50 [4] [nM] | IC50 ([5]; read-out: IC50) [nM] | IC50 ([1]; nci-h69ar) | IC50 ([5]; hek293) | SMILES
2900 | 422 | 1840 | 60100 | 111000 |  |  | O=C(Cn1nc(C(=O)Nc2cccnc2)c2ccccc21)Nc1ccc(Cl)cc1
 | 1320 | 14100 | 50300 |  | Not_active | Not_active | O=C(Cn1nc(C(=O)Nc2ccccn2)c2ccccc21)Nc1cc(Cl)ccc1Cl
2660 | 420 | 2290 | 20800 |  |  | Not_active | COc1cccc(NC(=O)Cn2nc(C(=O)Nc3cccc(OC)c3)c3ccccc32)c1
3790 | 237 | 1800 | 11800 | 76400 |  |  | COc1cccc(NC(=O)c2nn(CC(=O)Nc3ccccc3OC)c3ccccc23)c1
